The results in this text go back to patent US11453671B2, “Pyrazolopyrimidine inhibitors of JAK kinases and uses thereof” (Genentech, Inc., priority 2020, dated 2022).

Series [1] concerns the target T1, recombinant human JAK1 kinase domain protein (Residues 854-1154) (Homo sapiens, UniProt P23458).
T1 construct: human JAK1 kinase domain protein (Residues 854-1154); purchased Proteros Biostructures GmbH (Martinsried, Germany); host or cells: insect cells
As to the kind of experiment: JAK1 biochemical assay (microfluidic mobility shift, peptide phosphorylation). The following applies: 25 μM ATP, 1 nM total JAK1; read-out: Enzyme JAK1 Ki. An excerpt:
JAK1 and JAK2 Biochemical Assays

For series [2], the system named is JAK1: IL-13-stimulated STAT6 phosphorylation in BEAS-2B cells. As to the kind of experiment: P-STAT6 BEAS-2B+IL-13 Cell Assay. The class given is cell-based, human. The conditions noted are these: Homo sapiens, BEAS-2B, IL-13 stimulation, read-out: Cellular JAK1 PSTAT6 BEAS2B + IL13 IC50. The protocol: P-STAT6 BEAS-2B+IL-13 Cell Assay
In order to study the effect of JAK1 inhibitors in a cell line that is relevant to the cell biology of human asthma, an IL-13-stimulated STAT6 phosphorylation assay in the human lung bronchial epithelial BEAS-2B cell line was developed.
BEAS-2B cells (ATCC® CRL-9609™) were grown in Bronchial Epithelial Growth Medium (BEGM) (Lonza Catalog No. CC-3170; Walkersville, Md.; or PromoCell Catalog No. C-21060; Heidelberg, Germany). Test compound stock solutions (0.5 mM in DMSO) were serially diluted 1:2 in DMSO to generate a 10-point concentration curve (at 500×test concentration), which was further diluted by a 50-fold dilution step in BEGM to generate a 10× concentration curve (in 2% DMSO). Cells were plated at 100,000 cells/well in 200 μL of BEGM in 96-well plates and incubated for 48 hours at 37° C. in a humidified incubator. Medium was aspirated from the cells and replaced with 70 μL of fresh BEGM. Diluted test compound (10 μL; or 2% DMSO in assay medium) was added to the cells, and the plates were incubated for 1 hour at 37° C. in a humidified incubator. Twenty μL of 250 ng/mL human recombinant IL-13 (Bio Techne Catalog No. 213-ILB) was then added to the cells and incubated for 15 minutes at 37° C. Medium was aspirated from the cells and 60 μL of ice-cold 1×cell lysis buffer (Cell Signaling Technologies; Catalog No. 9803S) containing 1 mM PMSF was added to the cells. Assay plates were incubated at −80° C. for at least 1 hour. P-STAT6 was measured by coating GAR plates (MSD; Catalog No. L45RA-1) with rabbit anti-human total STAT6 antibody (Cell Signaling Technologies; Catalog No. 9362S), incubating the cell lysates in the coated plates overnight at 4° C., and then detecting with mouse anti-phospho-STAT6 (Tyr641) Clone 16E12 antibody (Millipore; Catalog No. 05-590, custom labeled by MSD with SULFO-tag) using standard MSD plate processing, washing, and detection protocols. Plates were read on the MESO SECTOR S600. Data Analysis
Data analysis was performed by subtracting negative control values from all wells and determining percent of control using the positive control values; the IC50 was determined with a four-parameter logistic fit model as shown in Equation 4.

The nature of series [3]: Cell cytotoxicity assay HEK-293T (CellTiter-Glo, 72 hours). The following applies: human, HEK-293T cells, read-out: Cytotox K-293 EC50. The format is cell-based. The text has this:
(§1) Cytotoxicity assays. Hepatocyte toxicity, general cytotoxicity or cytotoxicity of unknown mechanism is an undesirable feature for a potential drug, including inhaled drugs. It may be of benefit for an inhaled JAK1 or JAK1/JAK2 inhibitor to have low intrinsic cytotoxicity against various cell types. Typical cell types used to assess cytotoxicity include both primary cells such as human hepatocytes, and proliferating established cell lines such as Jurkat and HEK-293. […] Methods of measuring cytotoxicity are known in the art. In some embodiments, compounds described herein were tested as follows:
(§2) (a) Jurkat and HEK293T cells were maintained at a sub confluent density in T175 flasks. Cells were plated at 450 cells/45 μl medium in Greiner 384 well black/clear tissue culture treated plates. (Greiner Catalog #781091). After dispensing cells, plates were equilibrated at room temperature for 30 minutes. After 30 minutes at room temperature, cells were incubated overnight at 37° C. in a CO2 and humidity controlled incubator. The following day, cells were treated with compounds diluted in 100% DMSO (final DMSO concentration on cells=0.5%) with a 10 point dose-response curve with a top concentration of 50 μM. Cells and compounds were then incubated for 72 hours overnight at 37° C. in a CO2 and humidity controlled incubator. After 72 hours of incubation, viability was measured using CellTiterGlo® (Promega Catalog #G7572) to all wells. After incubation at room temperature for 20 minutes, plates were read on EnVision™ (Perkin Elmer Life Sciences) using luminescence mode;
(§3) A549 (ATCC® CCL-185™), Jurkat clone E6-1 (ATCC® TIB-152™) and HEK-293T (ATCC® CRL-1573™) cells maintained at a sub-confluent density in T175 flasks were used. Cells in exponential growth phase were plated (450 cells in 45 μL of medium) in Greiner 384-well black/clear tissue culture treated plates (Greiner Catalog No. 781091). After dispensing cells, plates were allowed to equilibrate at room temperature for 30 minutes, after which time the cell plates were placed overnight in a 37° C. CO2 and humidity-controlled incubator. The following day, cells were treated with test agent diluted in 100% DMSO (0.5% final DMSO concentration on cells) with a 10-point titration and a top concentration of 50 μM. Cells and compounds were then incubated for 72 hours in a 37° C. CO2 and humidity-controlled incubator, after which time cell viability was measured by adding CellTiter-Glo® (Promega G7572) reagent to all wells. Plates were incubated at room temperature for 20 minutes and then the well luminescence was read on an EnVision plate reader (Perkin Elmer Life Sciences).
Background: In ATP-based viability assays light output follows the ATP content of the culture.

Series [4] in a line: Cell cytotoxicity assay Jurkat (CellTiter-Glo, 72 hours). The format is cell-based. The following applies: human, Jurkat clone E6-1 cells, read-out: Cytotox Jurkat EC50.
Excerpt: as §1, §2, §3

Series [5] can be described thus: Cell cytotoxicity assay A549 (CellTiter-Glo, 72 hours). The conditions noted are these: human, A549 cells, read-out: Cytotox A549 EC50. The format is cell-based. The protocol: as §3
Series [6] addresses Recombinant human JAK2 kinase domain protein (Residues 812-1132) (Homo sapiens, UniProt O60674). Briefly: JAK2 biochemical assay (microfluidic mobility shift, peptide phosphorylation). The conditions noted are these: Enzyme JAK2 Ki (nM), 25 μM ATP, 0.2 nM total JAK2.
A short description of series [7]: Mouse lung tissue binding (equilibrium dialysis, RED). The format is in vitro ADME. The following applies: Table 5; sulfone-sulfide analog pairs. The protocol:
Mouse lung tissue binding. A high bound fraction or percentage of JAK1/JAK2 inhibitors to lung tissue may be undesirable since it can reduce the amount of free drug available to inhibit JAK1 or JAK2.
(a) Tissue binding experiments were performed in triplicate (n=3) using a Single-Use RED Plate by following the standard protocol. Initially, individual drugs were spiked to tissue homogenates (pH 7.4) to achieve a final concentration of 1 μM, and then 300 μL of drug-tissue homogenate mixtures were transferred to the donor wells of the RED plate which was pre-loaded with 500 μL phosphate buffer saline (133 mM) on the receiver wells. The RED plate was sealed with a gas permeable membrane and placed in a shaking incubator (450 rpm, VWR Symphony™) for 6 hr at 37° C. with 5% CO2. At the end of incubation, aliquots of 30 μL samples were taken out of the RED device and matrix equalized with an equal volume of tissue homogenates or buffer, and resulting samples were then immediately quenched with ice cold acetonitrile (sample:acetonitrile 1:4) containing either propranolol or labetalol as an internal standard. After shaking for 15 min at 500 rpm on a Thermo Scientific Compact Digital MicroPlate Shaker, all samples were then subjected to centrifugation at 3700 rpm for 15 min (Beckman Coulter Allegra X 12R) to remove plasma protein. Subsequently, supernatants were collected and then diluted with an equal volume of water prior to LC-MS/MS analysis.
(b) In an alternate procedure, the extent of lung tissue binding of test compound to mouse lung homogenate may also be determined by equilibrium dialysis using Pierce RED (rapid equilibrium dialysis) devices (Fisher Scientific 89811 & 89809). A 10 mM solution of compound in DMSO was prepared and diluted to 1 mM with DMSO. An aliquot of this 1 mM (4 μL) was added into lung homogenate (dilution factor of 1:9, lung tissue:potassium phosphate buffer (0.05 M, pH 7.4)) to give a final compound incubation concentration of 5 μM with solvent accounting for 0.5% (v/v) of the final incubation volume.
For each assay, the percentage lung tissue bound was determined in triplicate. Lung homogenate (200 μL) was loaded into one side of a RED device insert, in triplicate, and 350 μL of potassium phosphate buffer was loaded into the other side. The RED devices were sealed and incubated for 4 hours at ca. 37° C. on an orbital shaker (˜150 rpm).
Following incubation, an aliquot of lung homogenate (8 μL) and an aliquot of dialysate (72 μL) were matrix matched (lung homogenate with 72 μL phosphate buffer, dialysate with 8 μL lung homogenate) ahead of analysis. Protein was precipitated from the samples with the addition of 160 μL of acetonitrile containing internal standard. The same matrix matching and protein precipitation procedure was performed on lung homogenate aliquots sampled at the start of the experiment (t=0 min samples), for the assessment of the mass balance. The quenched samples were centrifuged (4000 rpm, 30 min, 4° C.) and the resultant supernatant diluted with water (3:1 (v/v), supernatant: water) and the samples analysed for parent compound by liquid chromatography mass spectrometry assay.
The unbound fraction (fu) in lung homogenate was determined from the ratio of the dialysate to homogenate peak area, corrected to take into account the lung homogenate dilution (D) to enable an estimate of whole lung tissue binding using the following equations: Undiluted fu=(1/D)/[((1/Apparent fu)−1)+(1/D)] Corrected fraction bound (%)=(1-undiluted fu)*100
(In general: In equilibrium dialysis only unbound substance equilibrates across the membrane.)

[8] abbreviates: Table 3, 72 hours, top concentration of 50 μM.
Where [9] appears, read: Table 4, methyl-desmethyl analog pairs.

SMILES strings stand for the structures.

T1 sequence (P23458 854-1154): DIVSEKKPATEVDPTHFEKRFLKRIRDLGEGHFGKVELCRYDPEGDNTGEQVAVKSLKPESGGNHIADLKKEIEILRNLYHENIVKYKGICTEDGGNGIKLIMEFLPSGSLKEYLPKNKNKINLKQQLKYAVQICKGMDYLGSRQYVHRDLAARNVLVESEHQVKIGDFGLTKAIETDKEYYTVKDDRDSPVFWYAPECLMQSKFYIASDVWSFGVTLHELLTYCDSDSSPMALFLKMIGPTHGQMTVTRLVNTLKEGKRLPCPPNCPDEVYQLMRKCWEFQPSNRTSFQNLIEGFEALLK
Chain of Recombinant human JAK2 kinase domain protein (Residues 812-1132) (O60674 812-1132): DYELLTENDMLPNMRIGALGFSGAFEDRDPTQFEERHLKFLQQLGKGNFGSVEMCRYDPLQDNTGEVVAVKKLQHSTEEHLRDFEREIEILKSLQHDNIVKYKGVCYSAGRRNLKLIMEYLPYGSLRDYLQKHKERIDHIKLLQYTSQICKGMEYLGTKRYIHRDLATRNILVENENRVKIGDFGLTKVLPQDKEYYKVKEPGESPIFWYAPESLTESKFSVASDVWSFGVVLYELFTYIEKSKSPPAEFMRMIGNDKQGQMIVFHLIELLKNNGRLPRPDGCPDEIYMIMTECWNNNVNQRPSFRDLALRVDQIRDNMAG

`CC(O)C(C)S(=O)(=O)c1ccc(OC(F)F)c(-c2nn(C)cc2NC(=O)c2cnn3cccnc23)c1` (single isomer, unassigned) [Example 68, N-[3-[2-(difluoromethoxy)-5-(2-hydroxy-1-methyl-propyl)sulfonyl-phenyl]-1-methyl-pyrazol-4-yl]pyrazolo[1,5-a]pyrimidine-3-carboxamide]: the Ki (in general, a measure of affinity in units of concentration, obtained from inhibition or displacement) in series [1] came to 0.0006 µM; in series [6], 0.25 nM. The IC50 (usually the concentration that inhibits the measured activity by half) in series [2] was found to be 0.062 µM. Further, the figures for the EC50 at 72 h in series [3] (setting [8]), in series [4] (setting [8]) and in series [5] (setting [8]) were 19 µM, 32 µM and not below 50 µM, respectively.

`CCS(=O)(=O)c1ccc(OC(F)F)c(-c2nn(C)cc2NC(=O)c2cnn3cccnc23)c1` [Example 6, N-[3-[2-(difluoromethoxy)-5-ethylsulfonyl-phenyl]-1-methyl-pyrazol-4-yl]pyrazolo[1,5-a]pyrimidine-3-carboxamide]: the Ki in series [1] amounted to 0.00048 µM. Moreover, in series [2], the IC50 worked out at 0.018 µM. Besides, the EC50 – broadly, the concentration that produces a half-maximal response – at 72 h came to 6.05 µM in series [3] (setting [8]); 6.05 µM in series [3] (setting [9]); 21.5 µM in series [4] (setting [8]); 21.5 µM in series [4] (setting [9]); 6.75 µM in series [5] (setting [8]); 6.75 µM in series [5] (setting [9]).

`Cn1cc(NC(=O)c2cnn3cccnc23)c(-c2cc(S(=O)(=O)C(F)F)ccc2OC(F)F)n1` [Example 9, N-[3-[2-(difluoromethoxy)-5-(difluoromethylsulfonyl)phenyl]-1-methyl-pyrazol-4-yl]pyrazolo[1,5-a]pyrimidine-3-carboxamide]: the Ki in series [1] was found to be 0.00027 µM; in series [6], 0.18 nM. Further, the IC50 in series [2] worked out at 0.015 µM. Further, the 50% effective concentration (EC50) at 72 h in series [3] (setting [8]) is 2.2 µM; in series [3] (setting [9]), 2.2 µM; in series [4] (setting [8]), 3.5 µM; in series [4] (setting [9]) it was 3.5 µM; in series [5] (setting [8]), 1.66 µM; in series [5] (setting [9]) it was 1.66 µM.

As to `Cn1cc(NC(=O)c2cnn3cccnc23)c(-c2cc(S(=O)(=O)c3cccc(O)c3)ccc2OC(F)F)n1` [Example 11, N-[3-[2-(difluoromethoxy)-5-(3-hydroxyphenyl)sulfonyl-phenyl]-1-methyl-pyrazol-4-yl]pyrazolo[1,5-a]pyrimidine-3-carboxamide], the Ki is 0.00021 µM in series [1] and 0.12 nM in series [6]. For the same compound, the IC50 in series [2] is 0.017 µM. For the same compound, the EC50 at 72 h is 3.7 µM in series [3] (setting [8]), 5.5 µM in series [4] (setting [8]) and 6.4 µM in series [5] (setting [8]).

Turning to `CN1CCC[C@H]1Cn1cc(NC(=O)c2cnn3cccnc23)c(-c2cc(S(C)(=O)=O)ccc2OC(F)F)n1` [Example 72, N-[3-[2-(difluoromethoxy)-5-methylsulfonyl-phenyl]-1-[[(2S)-1-methylpyrrolidin-2-yl]methyl]pyrazol-4-yl]pyrazolo[1,5-a]pyrimidine-3-carboxamide], the inhibition constant (Ki) was determined as 0.00094 µM in series [1] and 1.5 nM in series [6]. Besides, the IC50 in series [2] amounted to 0.031 µM. The EC50 at 72 h in series [3] (setting [8]) was 20 µM; in series [4] (setting [8]), 49 µM; in series [5] (setting [8]), not below 50 µM.

With `O=C(Nc1c[nH]nc1-c1cc(S(=O)(=O)C(F)F)ccc1OC(F)F)c1cnn2cccnc12` [reference compound], the EC50 at 72 h amounted to 0.038 µM in series [3] (setting [9]), 0.16 µM in series [4] (setting [9]) and 0.26 µM in series [5] (setting [9]).

On to `CSc1ccc(OC(F)F)c(-c2nn(CC#N)cc2NC(=O)c2cnn3cccnc23)c1` [reference compound], for which the “Lung tissue binding, %” value in series [7] was 96.9%.
